Results taken from US11332490B1, “Compounds and methods for treating osteoarthritis” (Academia Sinica, priority 2021, dated 2022).
“Also recorded” adds a separate entry of the source. Each block holds one compound with its values, some of them ahead of it.

Experiments:
[1] = target: T1, Sulf-1 (Homo sapiens, UniProt Q8IWU6); test: Competition assay with 4-MUS substrate (fluorogenic); format: biochemical; set-up: made in house; settings: for EC50: competition with 4-MUS for Sulf-1
Experimental: Competition assay with 4-MUS substrate. […] A control mixture without the competing substrate was defined as 100% fluorescent intensity, and the sample with substrate was determined as percentage of fluorescent intensity: (Fluorescent intensity of substrate sample)/(Fluorescent intensity of control sample).
HS oligosaccharides of Example 1.2 were used as competing substrates in the presence of 4-MUS for the identification of Sulf-1 substrate. Compounds 18-20 as well as the commercially available heparin 3000 were independently assessed for their competing effect on 4-MUS cleavage by Sulf-1 to yield the fluorescent 4-methylumbelliferone (4-MU) (FIG. 1, (A)).

[2] = target: T1, Sulf-1; test: HPLC assay of sulfate ion release from the substrate by Sulf-1; settings: substrate 480 μM, treated with human Sulf-1, HPLC
Experimental: (§1) HPLC assay. […] Release of the sulfate ion from the substrate was quantified via HPLC. Each sample (5 μL) was injected to AS9HC anion-exchange column (Dionex), and the sulfate ion was eluted by 9 mM Na2CO3 then analyzed by a conductivity detector (PROD, AERS500, 4 mm, Thermal) with reagent-free controller (PROD, RFC-10) and compared with a standard curve with Na2SO4 (Merck) from 0 to 500 μM.

[3] = target: T1, Sulf-1; test: Sulf-1 inhibition assay (4-MU released from 4-MUS)
Text: Sulf-1 inhibition assay. […] The data obtained were fitted to the Michaelis-Menten equation using the GraphPad to determine the enzyme inhibition parameters.

[4] = tested on: NCCCCCO[C@@H]1OC(C(=O)O)C(O[C@H]2OC(COS(=O)(=O)O)[C@@H](O[C@@H]3OC(C(=O)O)C(O)[C@@H](O)C3OS(=O)(=O)O)[C@H](O)C2NS(=O)(=O)O)[C@@H](O)C1OS(=O)(=O)O; test: purified protein, by the assay type; settings: other: released sulfate at different substrate concentrations; pH 7.4; 37.0 °C
Experimental: as §1

[5] = target: T2, human Sulf-1d417-726 (Homo sapiens, UniProt Q8IWU6, DEL417-726); test: Determination of dissociation constant (KD) using surface plasmon resonance; format: binding; settings: compound immobilized on CM5 sensor chip, 1:1 Langmuir model
T2 construct: made in house
Experimental: Determination of dissociation constant (KD) using surface plasmon resonance. Compound 46 was immobilized on the surface of a Biacore sensor chip (GE Healthcare) according to the manufacturer's guidelines using Biacore T200 system. The kinetic analysis study was performed at different concentrations of hSulf1d417-726 protein upon serial dilution to 250, 125, 63, 31 and 15 nM in running buffer [20 mM NaOAc (pH 5.0), 150 mM NaCl, and 0.05% Tween 20] and injected on to the chip surface with a flow rate of 25 μL/min at 25° C. In each run, the chip sensor surface was regenerated by injecting 4 M NaCl. The titration curves fit well to a 1:1 Langmuir binding model for calculations of equilibrium constants.
With highest inhibitory activity, the binding affinity of the inhibitor 46 with human Sulf-1 was further measured by surface plasmon resonance (SPR). The hydrophilic domain-deleted mutant of Sulf-1, namely human Sulf-1d417-726, lacking two furin-type proteinase cleavage sites responsible for forming the disulfide-bonded heterodimers of 75- and 50-kDa subunits with retained enzyme activity was constructed according to the literature report. Compound 46 was immobilized on the CM5 sensor chip, and aliquots of human Sulf-1d417-726 at gradient concentrations were applied onto the chip.

- EC50 [1]: 3.8 µM
Compound: NCCCCCO[C@@H]1OC(C(=O)O)C(O[C@H]2OC(COS(=O)(=O)O)[C@@H](O[C@@H]3OC(C(=O)O)C(O)[C@@H](O)C3OS(=O)(=O)O)[C@H](O)C2NS(=O)(=O)O)[C@@H](O)C1OS(=O)(=O)O (stereo partly drawn) [Compound 36]

- sulfate concentration upon hydrolysis by Sulf-1 [2]: 46.2 µM
- EC50 [1]: 87.8 µM
Compound: NCCCCCO[C@@H]1O[C@@H](C(=O)O)[C@@H](O[C@H]2O[C@H](COS(=O)(=O)O)[C@@H](O[C@@H]3O[C@@H](C(=O)O)[C@@H](O[C@H]4O[C@H](COS(=O)(=O)O)[C@@H](O)[C@H](O)[C@H]4NS(=O)(=O)O)[C@H](O)[C@H]3OS(=O)(=O)O)[C@H](O)[C@H]2NS(=O)(=O)O)[C@H](O)[C@H]1OS(=O)(=O)O [Compound 19]
- competing effect on 4-MUS cleavage by Sulf-1 (in words) ([1]; competitor 320 μM (0.32 mM), 4-MUS 4.35 mM): strongly compete with 4-MUS; also recorded: good binder

- inhibition at 700 µM ([3]; read-out: Sulf-1 activity inhibited): 20%
Compound: NCCCCCO[C@@H]1OC(C(=O)O)C(O[C@H]2OC(COS(N)(=O)=O)[C@@H](O)C(O)C2NS(=O)(=O)O)[C@@H](O)C1OS(=O)(=O)O (stereo partly drawn) [Compound 45]

- sulfate concentration upon hydrolysis by Sulf-1 [2]: 5.9 µM
- fluorescence intensity (4-MUS hydrolysis, % of control) ([1]; competitor 320 μM, 4-MUS 4.35 mM, 4-MUS with Sulf-1 in pure water = 100%): 94.5%
Compound: NCCCCCO[C@@H]1OC(C(=O)O)C(O[C@@H]2OC(COS(=O)(=O)O)[C@@H](O)C(O)C2NS(=O)(=O)O)[C@@H](O)C1OS(=O)(=O)O (stereo partly drawn) [Compound 18]

- IC50 [3]: 29.6 µM
Compound: NCCCCCO[C@@H]1O[C@@H](C(=O)O)[C@@H](O[C@H]2O[C@H](COS(N)(=O)=O)[C@@H](O[C@@H]3O[C@@H](C(=O)O)[C@@H](O[C@H]4O[C@H](COS(N)(=O)=O)[C@@H](O)[C@H](O)[C@H]4NS(=O)(=O)O)[C@H](O)[C@H]3OS(=O)(=O)O)[C@H](O)[C@H]2NS(=O)(=O)O)[C@H](O)[C@H]1OS(=O)(=O)O [Compound 47]

Compound: human Sulf-1 (Homo sapiens)
- Km [4]: 25.8 µM

- IC50 [3]: 0.53 µM
- Ki [3]: 0.36 µM
- Kd [5]: 0.012 µM
Compound: NCCCCCO[C@@H]1O[C@@H](C(=O)O)[C@@H](O[C@H]2O[C@H](COS(N)(=O)=O)[C@@H](O[C@@H]3O[C@@H](C(=O)O)[C@@H](O)[C@H](O)[C@H]3OS(=O)(=O)O)[C@H](O)[C@H]2NS(=O)(=O)O)[C@H](O)[C@H]1OS(=O)(=O)O [Compound 46]
